# Test results: patent publication US12162918B2, “Periostin compounds for the treatment of haematological complications” (Chemotherapeutisches Forschungsinstitut Georg-Speyer-Haus, priority 2018, dated 2024)
# Key:
# Lin− hematopoietic cells = test: Direct effect of warfarin on Lin− hematopoietic cells in vitro; format: cell-based, mice
# Protocol: (§1) Concentrations of drugs for in vitro use were 2 μM for warfarin, 2 μg/ml for periostin, 5 μM for the AKT inhibitor MK-2206 (Selleck Chemicals, Houston, TX) and cilengitide (Selleck Chemicals, Houston, TX, Cat. No. #S7077) was used at 0.05 μM. Phosphate buffered saline served as the vehicle control.
# To test the direct effect of warfarin on hematopoietic cells 100,000 Lin− cells were cultured in 2 μM vehicle or warfarin in the absence of stroma cells for a total of 7 days. For the in vitro rescue experiment with periostin stroma cells were grown in warfarin for 14 days, before vehicle or periostin were added.
# Lin− and LKS cells = test: Homing assay to a warfarin-treated BMM; format: in vivo, mice; conditions: 18 hours after transplantation
# Protocol: In the homing assay, we intravenously transplanted 9×10^6 Actin DsRed+ whole BM cells into C57BL/6N mice treated with vehicle or warfarin for 14 days. 18 hours later, we analyzed BM and spleen cells of recipient mice for the presence of DsRed+ LKS cells.
# LKS and LKS SLAM cells = test: G-CSF-mediated mobilization; format: in vivo; conditions: warfarin-treated mice
# Protocol: In the mobilization experiments vehicle- or warfarin-treated C57/B16 mice were treated with 200 μg/kg G-CSF daily for 4 days, sacrificed on day 5 and peripheral blood analyzed for LKS and LKS SLAM cells by flow cytometry.
# murine stroma cells = test: Differentiation, gene expression and apoptosis of stroma and calvaria cells in presence of warfarin; format: cell-based
# Protocol: as §1
# Bones from mice were crushed and plated and hematopoietic cells were removed the following day. As described (Mukherjee et al., 2008), after reaching confluence the stroma cells were cultured in α-MEM medium containing 10 mM β-glycerolphosphate, 10 nM dexamethasone and 50 μg/ml ascorbic acid for differentiation into osteoblastic cells (Mukherjee et al., 2008) or 500 nM insulin and 100 nM dexamethasone for differentiation into adipocytes. Differentiation was tested after 14-20 days by staining for von Kossa in the case of osteoblastic cells and Oil Red O in the case of adipocytes following standard staining protocols. Osteoclasts were purified from bone marrow macrophages, following standard protocols. Briefly, bone marrow cells were isolated from the femora and tibiae of 6-8 week old C57/B16 animals and cultured overnight at 37 C in α-MEM medium containing 10% fetal bovine serum and 1% antibiotic/antimycotic. The following day non-adherent cells were collected and separated by centrifugation on 50% Ficoll-Paque. Bone marrow-derived macrophages were seeded at 20,000 cells/well and cultured for 3 days in the presence of macrophage colony-stimulating factor (M-CSF) (50 ng/ml). On day 4 cells were also treated with receptor activator of nuclear factor kappa-B ligand (RANKL) (50 ng/ml) for an additional 4-5 days prior to tartrate-resistant acid phosphatase (TRAP) staining. Cells were treated with vehicle or warfarin (2 μM) for the entire culture period. […]
# Quantitative PCR was performed using standard protocols.
# human CD34+ cells = test: Intrafemoral cotransplantation of human CD34+ cells with treated human stroma cells into NSG mice; format: in vivo
# Protocol: (§2) For the intrafemoral co-transplantation experiments 0.8×10^5 human CD34+ cells or 1×10^5 Lin− cells from Actin-DsRed reporter mice were mixed with 5×10^5 human or murine stroma cells which had been expanded in vitro and pretreated with vehicle or 2 μM warfarin for 14 days. The human stromal cells had been obtained via flushing of discarded bones from the orthopedic operating room, as approved of by the local ethics committee.
# We assessed the complete blood count of vehicle or warfarin-treated mice using a complete blood count analyzer (Scil Vet ABC, Gurnee, IL). Peripheral blood and bone marrow samples were stained with antibodies for flow cytometry, which was performed on a BD LSR Fortessa (BD Biosciences, Heidelberg, Germany). The lineage antibody cocktail contained antibodies to B220, CD5, Ter119, F4/80 and CD11b. Engraftment of human cells in NSG mice was assessed using anti-human CD45 (BD Biosciences, San José, CA).
# Stroma and hematopoietic cells (purified for CD34+) were taken from the iliac crest of healthy donors of allogeneic bone marrow.
# F4/80+ macrophages = test: Macrophage coculture assay and periostin in macrophage conditioned medium; format: cell-based, mice
# Excerpt: For the macrophage coculture assay F4/80+ macrophages were sorted from the bone marrow of control or warfarin-treated mice, plated and cocultured with 20,000-30,000 Lin− BM cells as from the following day.
# Actin DsRed+ Lin− cells = test: Intrafemoral cotransplantation of treated murine stroma cells with untreated Lin− cells; format: in vivo, mice; conditions: cotransplanted with warfarin- vs vehicle-treated stroma
# Protocol: as §2
compound,measurement,setting,value
CC(=O)CC(c1ccccc1)c1c(O)c2ccccc2oc1=O (centres unmarked) [warfarin],number of colonies from Lin− cells previously exposed in vitro,"Lin− hematopoietic cells; 2 μM warfarin or vehicle for 7 days, scored day 10",did not yield significantly different numbers of colonies
same,"effect on phenotypical Lin− or LKS cells, annexin V+ dead cells, cycling or myeloid cells",Lin− hematopoietic cells; Lin− cells cultured in warfarin-containing media,no direct effect
same,homing of Lin− and LKS cells to a warfarin-treated BMM,Lin− and LKS cells,not compromised
same,G-CSF-mediated mobilization of LKS SLAM cells into peripheral blood,LKS and LKS SLAM cells; P=0.026,impaired
same,G-CSF-mediated mobilization of LKS cells into peripheral blood,LKS and LKS SLAM cells; P=0.042,impaired
same,apoptosis of stroma cells in vitro,murine stroma cells; P=0.05,"modest, but significant increase"
same,differentiation of murine stroma cells to adipocytes and osteoblasts,murine stroma cells; in presence of warfarin,significantly compromised
same,"relative expression of osteoblastic genes (Runx2, Alpl, Col1a1, Osx, Spp1, Bglap and others)","murine stroma cells; primary calvaria cells, warfarin vs vehicle",significantly reduced
same,huCD45+ engraftment in femora,human CD34+ cells; 6 months after transplantation,only trends towards lower
same,engraftment of human CD45+ leukocytes,"human CD34+ cells; cotransplanted with warfarin-treated human stroma, 4 weeks, P=0.046",decreased engraftment
same,percentage of Annexin V+ apoptotic leukocytes,"F4/80+ macrophages; untreated Lin− cells on warfarin-treated sorted F4/80+ macrophages, P=0.034",increased
same,total periostin levels in conditioned medium from macrophages,"F4/80+ macrophages; vehicle- versus warfarin-treated macrophages, coimmunoprecipitation",no significant reduction
same,engraftment of donor-derived myeloid cells,Actin DsRed+ Lin− cells; P=0.023,decreased engraftment
same,engraftment of total donor bone marrow,Actin DsRed+ Lin− cells; P=0.025,decreased engraftment
